From paper PMC9036794, “Improving astaxanthin production in Escherichia coli by co-utilizing CrtZ enzymes with different substrate preference” (Microbial Cell Factories, 2022)

What was measured:
Format in all cases: cell-based
[1] = biological target: T1, PAcrtZ (Pantoea agglomerans, UniProt E9LFG1); test: astaxanthin formed in canthaxanthin-producing E. coli, HPLC; details: engineered E. coli Can004 background (Ast014, Ast015), shake flask, 30 °C; conversion to astaxanthin; whole-cell titre only
T1 construct: gene crtZ; gene integrated into E. coli chromosome (manA site) under P-trc; whole-cell read-out
T1 sequence (E9LFG1 entry or part of it): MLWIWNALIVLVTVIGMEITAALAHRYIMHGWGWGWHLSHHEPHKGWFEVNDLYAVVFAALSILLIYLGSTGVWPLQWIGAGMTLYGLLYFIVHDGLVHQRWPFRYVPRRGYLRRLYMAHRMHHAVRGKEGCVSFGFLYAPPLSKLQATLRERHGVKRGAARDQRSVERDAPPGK

[2] = biological target: T2, PCcrtZ (Paracoccus sp. PC1, UniProt Q44262); test: as above; details: engineered E. coli Can004 background (Ast016, Ast017), shake flask, 30 °C; conversion to astaxanthin; whole-cell titre only
T2 construct: gene crtZ; synthesized gene, integrated into E. coli chromosome (manA site) under P-trc; whole-cell read-out
T2 sequence (Q44262 1-162): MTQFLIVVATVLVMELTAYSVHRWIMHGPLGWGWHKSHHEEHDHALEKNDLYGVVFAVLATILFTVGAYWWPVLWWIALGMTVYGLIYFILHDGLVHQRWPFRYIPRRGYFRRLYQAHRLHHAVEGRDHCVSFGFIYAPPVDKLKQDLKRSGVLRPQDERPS

[3] = biological target: T3, crtW* (Brevundimonas sp. NBRC 101024, UniProt Q4W8B8); test: canthaxanthin formed in beta-carotene-producing E. coli, HPLC; details: engineered E. coli (Can003, Can004), shake flask, 30 °C; conversion to canthaxanthin; whole-cell titre only
T3 construct: integrated into E. coli chromosome (mgsA, lacZ sites) under P-trc; whole-cell read-out
T3 sequence (Q4W8B8 1-244): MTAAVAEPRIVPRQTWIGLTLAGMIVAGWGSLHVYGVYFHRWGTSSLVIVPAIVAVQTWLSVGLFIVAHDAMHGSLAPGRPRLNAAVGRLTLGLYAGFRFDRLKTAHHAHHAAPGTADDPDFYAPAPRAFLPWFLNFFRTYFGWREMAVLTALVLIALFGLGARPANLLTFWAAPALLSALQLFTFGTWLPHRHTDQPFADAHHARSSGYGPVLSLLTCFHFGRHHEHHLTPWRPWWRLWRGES

[4] = biological target: T1, PAcrtZ; test: zeaxanthin formed in beta-carotene-producing E. coli, HPLC; details: engineered E. coli CAR032 background (Zea003, Zea004), shake flask, 30 °C; conversion to zeaxanthin; whole-cell titre only
[5] = biological target: T2, PCcrtZ; test: as above; details: engineered E. coli CAR032 background (Zea001, Zea002), shake flask, 30 °C; conversion to zeaxanthin, weak; whole-cell titre only
Source text: zeaxanthin formed in beta-carotene-producing E. coli, HPLC on PCcrtZ | PCcrtZ from Paracoccus sp.

SMILES	astaxanthin formed in canthaxanthin-producing E. coli, HPLC [1]	astaxanthin formed in canthaxanthin-producing E. coli, HPLC [2]	canthaxanthin formed in beta-carotene-producing E. coli, HPLC [3]	zeaxanthin formed in beta-carotene-producing E. coli, HPLC [4]	zeaxanthin formed in beta-carotene-producing E. coli, HPLC [5]
CC1=C(/C=C/C(C)=C/C=C/C(C)=C/C=C/C=C(C)/C=C/C=C(C)/C=C/C2=C(C)C(=O)CCC2(C)C)C(C)(C)CCC1=O [canthaxanthin]	Ast014 (Can004 with one copy of PAcrtZ)	Ast016 (Can004 with one copy of PCcrtZ) produced similar amounts of astaxanthin			
CC1=C(/C=C/C(C)=C/C=C/C(C)=C/C=C/C=C(C)/C=C/C=C(C)/C=C/C2=C(C)CCCC2(C)C)C(C)(C)CCC1 [β-carotene]			CrtW converts β-carotene into keto-carotenoids	PAcrtZ from P. agglomerans therefore exhibited a substrate preference for β-carotene	PCcrtZ from Paracoccus sp. PC1 showed weak activity in the conversion of β-carotene into zeaxanthin
